We go through 1 compound from publication PMC7180948, “New Insights into 4-Anilinoquinazolines as Inhibitors of Cardiac Troponin I–Interacting Kinase (TNNi3K)” (Molecules, 2020).

What all share (assay): biochemical
Holding throughout (parameters): KINOMEscan competition binding panel (Eurofins DiscoverX), single concentration, percent inhibition
What all share (conditions): read-out: 15 at 1 µM % inhibition

Assay [1] deals with T1, ABL1(H396P)-phosphorylated (Homo sapiens, UniProt P00519, H396P).
T1 construct: phosphorylated
The essentials:
(§1)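 Binding was profiled in the KINOMEscan panel of over 400 human kinases, with each compound tested at a single concentration of 1 µM to map selectivity.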

Assay [2] concerns the target T2, ABL1(T315I)-phosphorylated (Homo sapiens, UniProt P00519, T315I).
T2 construct: phosphorylated
The essentials:
as §1

Assay [3] addresses T3, ADCK3 (Homo sapiens, UniProt Q8NI60).
T3 construct: gene COQ8A
The method, boiled down:
as §1

Assay [4] has as its target T4, AMPK-alpha2 (Homo sapiens, UniProt P54646).
T4 construct: gene PRKAA2
The essentials:
as §1

For assay [5], the target named is ANKK1 (Homo sapiens, UniProt Q8NFD2). The essentials: as §1
The target in assay [6] is CAMK1 (Homo sapiens, UniProt Q14012). The method, boiled down: as §1
Assay [7] deals with CAMK2B (Homo sapiens, UniProt Q13554). The method, boiled down: as §1
Assay [8] deals with CLK4 (Homo sapiens, UniProt Q9HAZ1). The essentials: as §1
Assay [9] concerns the target DYRK2 (Homo sapiens, UniProt Q92630). The essentials: as §1
For assay [10], the target named is FES (Homo sapiens, UniProt P07332). The essentials:
as §1

The target of assay [11] is T5, GCN2(Kin.Dom.2,S808G) (Homo sapiens, UniProt Q9P2K8, S808G).
T5 construct: gene EIF2AK4; Kin.Dom.2
The essentials: as §1

The target in assay [12] is T6, MLCK (Homo sapiens, UniProt Q32MK0).
T6 construct: gene MYLK3
The method, boiled down: as §1

Assay [13] addresses NEK6 (Homo sapiens, UniProt Q9HC98). The method, boiled down:
as §1

In assay [14] the target is T7, PFTK1 (Homo sapiens, UniProt O94921).
T7 construct: gene CDK14
The essentials: as §1

The target in assay [15] is PIK3C2G (Homo sapiens, UniProt O75747). The method, boiled down:
as §1

Assay [16] concerns the target T8, RIPK5 (Homo sapiens, UniProt Q6XUX3).
T8 construct: gene DSTYK
The essentials:
as §1

The target of assay [17] is T9, RPS6KA4(Kin.Dom.2-C-terminal) (Homo sapiens, UniProt O75676).
T9 construct: Kin.Dom.2-C-terminal
The essentials: as §1

The target in assay [18] is T10, RPS6KA5(Kin.Dom.1-N-terminal) (Homo sapiens, UniProt O75582).
T10 construct: Kin.Dom.1-N-terminal
The essentials:
as §1

Assay [19] addresses T11, SGK (Homo sapiens, UniProt O00141).
T11 construct: gene SGK1
The method, boiled down:
as §1

The target in assay [20] is SNRK (Homo sapiens, UniProt Q9NRH2). The method, boiled down: as §1
The target of assay [21] is ULK1 (Homo sapiens, UniProt O75385). The method, boiled down: as §1
Assay [22] has as its target T12, VPS34 (Homo sapiens, UniProt Q8NEB9).
T12 construct: gene PIK3C3
The essentials:
as §1

Assay [23] concerns the target T13, YSK4 (Homo sapiens, UniProt Q56UN5).
T13 construct: gene MAP3K19
The method, boiled down: as §1

Chain of FES (P07332 whole entry): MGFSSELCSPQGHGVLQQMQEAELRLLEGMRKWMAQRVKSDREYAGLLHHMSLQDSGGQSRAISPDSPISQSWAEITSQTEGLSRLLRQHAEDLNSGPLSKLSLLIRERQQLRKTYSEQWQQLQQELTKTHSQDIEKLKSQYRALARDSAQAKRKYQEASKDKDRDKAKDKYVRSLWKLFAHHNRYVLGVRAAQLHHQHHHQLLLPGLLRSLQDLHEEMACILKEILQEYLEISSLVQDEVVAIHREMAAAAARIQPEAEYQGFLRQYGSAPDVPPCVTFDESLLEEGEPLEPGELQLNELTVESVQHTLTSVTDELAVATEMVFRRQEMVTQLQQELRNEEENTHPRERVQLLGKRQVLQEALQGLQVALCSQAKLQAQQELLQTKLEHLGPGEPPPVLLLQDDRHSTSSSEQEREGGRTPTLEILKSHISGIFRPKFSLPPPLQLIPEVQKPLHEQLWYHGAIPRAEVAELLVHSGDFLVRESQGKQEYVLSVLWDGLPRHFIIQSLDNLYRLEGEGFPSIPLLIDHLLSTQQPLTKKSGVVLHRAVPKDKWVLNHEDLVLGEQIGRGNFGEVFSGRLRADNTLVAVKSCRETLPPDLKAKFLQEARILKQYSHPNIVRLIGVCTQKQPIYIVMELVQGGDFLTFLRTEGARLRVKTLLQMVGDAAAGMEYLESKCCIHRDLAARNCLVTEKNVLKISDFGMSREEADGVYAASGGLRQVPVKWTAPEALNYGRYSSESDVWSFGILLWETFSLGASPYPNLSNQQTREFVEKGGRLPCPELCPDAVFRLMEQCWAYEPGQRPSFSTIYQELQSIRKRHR
T3 sequence (Q8NI60 whole entry): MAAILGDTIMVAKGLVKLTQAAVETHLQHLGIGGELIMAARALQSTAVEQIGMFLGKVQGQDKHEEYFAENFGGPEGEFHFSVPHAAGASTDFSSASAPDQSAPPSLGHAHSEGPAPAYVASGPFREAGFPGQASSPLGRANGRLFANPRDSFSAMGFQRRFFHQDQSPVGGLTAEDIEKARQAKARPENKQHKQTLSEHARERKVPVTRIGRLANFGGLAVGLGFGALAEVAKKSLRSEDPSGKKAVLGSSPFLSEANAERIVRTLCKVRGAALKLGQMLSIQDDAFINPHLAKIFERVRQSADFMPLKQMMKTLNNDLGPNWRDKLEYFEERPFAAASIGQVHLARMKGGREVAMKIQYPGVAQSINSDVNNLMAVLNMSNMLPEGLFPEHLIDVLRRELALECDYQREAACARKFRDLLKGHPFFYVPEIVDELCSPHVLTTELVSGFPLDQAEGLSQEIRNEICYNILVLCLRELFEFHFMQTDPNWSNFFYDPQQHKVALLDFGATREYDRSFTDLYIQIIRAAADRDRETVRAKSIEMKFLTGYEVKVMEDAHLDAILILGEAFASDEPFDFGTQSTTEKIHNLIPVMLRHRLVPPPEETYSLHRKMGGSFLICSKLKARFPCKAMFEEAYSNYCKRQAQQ
T7 sequence (O94921 whole entry): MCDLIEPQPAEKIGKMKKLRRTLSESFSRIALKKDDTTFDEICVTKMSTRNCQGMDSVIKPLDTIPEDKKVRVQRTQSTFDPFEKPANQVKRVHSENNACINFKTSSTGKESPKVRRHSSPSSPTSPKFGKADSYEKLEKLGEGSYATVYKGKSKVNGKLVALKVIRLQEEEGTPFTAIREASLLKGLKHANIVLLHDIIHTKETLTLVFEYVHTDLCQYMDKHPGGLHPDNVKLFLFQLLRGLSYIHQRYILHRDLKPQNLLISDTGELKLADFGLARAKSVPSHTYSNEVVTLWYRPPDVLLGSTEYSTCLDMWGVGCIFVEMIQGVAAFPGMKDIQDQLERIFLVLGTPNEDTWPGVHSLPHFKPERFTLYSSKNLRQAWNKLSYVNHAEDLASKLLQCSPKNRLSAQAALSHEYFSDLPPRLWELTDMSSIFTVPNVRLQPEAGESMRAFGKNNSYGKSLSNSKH
T4 sequence (P54646 whole entry): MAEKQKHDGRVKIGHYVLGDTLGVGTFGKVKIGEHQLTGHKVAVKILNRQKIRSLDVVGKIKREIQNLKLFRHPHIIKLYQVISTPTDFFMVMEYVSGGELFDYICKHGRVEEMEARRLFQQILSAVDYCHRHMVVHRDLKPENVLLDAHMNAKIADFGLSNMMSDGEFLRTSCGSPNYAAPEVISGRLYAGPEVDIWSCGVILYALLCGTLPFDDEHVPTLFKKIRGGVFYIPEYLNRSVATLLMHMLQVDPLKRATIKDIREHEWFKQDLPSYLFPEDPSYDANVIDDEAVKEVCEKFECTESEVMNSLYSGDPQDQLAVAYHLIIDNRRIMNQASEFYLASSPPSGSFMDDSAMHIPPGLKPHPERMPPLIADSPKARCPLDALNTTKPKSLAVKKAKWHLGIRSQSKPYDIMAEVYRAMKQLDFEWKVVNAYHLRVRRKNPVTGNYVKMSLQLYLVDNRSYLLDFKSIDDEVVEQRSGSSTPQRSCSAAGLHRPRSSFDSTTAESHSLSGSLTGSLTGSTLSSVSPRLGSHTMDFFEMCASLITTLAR
Chain of CLK4 (Q9HAZ1 whole entry): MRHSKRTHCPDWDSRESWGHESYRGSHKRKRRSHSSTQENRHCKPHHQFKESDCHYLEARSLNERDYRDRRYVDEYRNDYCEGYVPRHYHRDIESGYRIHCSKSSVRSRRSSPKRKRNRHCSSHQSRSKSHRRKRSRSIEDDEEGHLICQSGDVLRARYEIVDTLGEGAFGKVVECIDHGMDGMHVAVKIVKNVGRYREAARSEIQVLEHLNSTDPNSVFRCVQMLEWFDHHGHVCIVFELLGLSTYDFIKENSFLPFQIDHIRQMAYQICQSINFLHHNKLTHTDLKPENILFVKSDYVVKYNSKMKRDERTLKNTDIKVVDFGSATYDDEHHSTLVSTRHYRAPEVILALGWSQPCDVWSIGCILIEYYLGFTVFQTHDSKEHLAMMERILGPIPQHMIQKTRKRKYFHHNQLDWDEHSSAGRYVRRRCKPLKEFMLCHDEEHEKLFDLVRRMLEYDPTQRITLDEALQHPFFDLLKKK
Chain of DYRK2 (Q92630 whole entry): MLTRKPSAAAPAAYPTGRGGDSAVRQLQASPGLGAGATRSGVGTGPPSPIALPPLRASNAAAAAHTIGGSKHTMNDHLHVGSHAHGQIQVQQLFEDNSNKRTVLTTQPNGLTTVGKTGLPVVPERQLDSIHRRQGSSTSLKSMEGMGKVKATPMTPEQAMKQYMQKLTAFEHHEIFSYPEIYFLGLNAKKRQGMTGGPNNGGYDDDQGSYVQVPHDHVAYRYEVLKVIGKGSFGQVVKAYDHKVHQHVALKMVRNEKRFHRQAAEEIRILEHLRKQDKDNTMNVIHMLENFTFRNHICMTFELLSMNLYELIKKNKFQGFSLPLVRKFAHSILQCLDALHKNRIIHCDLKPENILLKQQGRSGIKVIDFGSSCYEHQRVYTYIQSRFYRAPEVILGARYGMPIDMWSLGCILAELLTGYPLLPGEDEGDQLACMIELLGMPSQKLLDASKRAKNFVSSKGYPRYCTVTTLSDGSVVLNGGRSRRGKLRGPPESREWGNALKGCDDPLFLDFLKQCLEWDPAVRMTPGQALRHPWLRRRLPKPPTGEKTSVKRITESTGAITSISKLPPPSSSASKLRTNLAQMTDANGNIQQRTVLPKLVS
Chain of PIK3C2G (O75747 whole entry): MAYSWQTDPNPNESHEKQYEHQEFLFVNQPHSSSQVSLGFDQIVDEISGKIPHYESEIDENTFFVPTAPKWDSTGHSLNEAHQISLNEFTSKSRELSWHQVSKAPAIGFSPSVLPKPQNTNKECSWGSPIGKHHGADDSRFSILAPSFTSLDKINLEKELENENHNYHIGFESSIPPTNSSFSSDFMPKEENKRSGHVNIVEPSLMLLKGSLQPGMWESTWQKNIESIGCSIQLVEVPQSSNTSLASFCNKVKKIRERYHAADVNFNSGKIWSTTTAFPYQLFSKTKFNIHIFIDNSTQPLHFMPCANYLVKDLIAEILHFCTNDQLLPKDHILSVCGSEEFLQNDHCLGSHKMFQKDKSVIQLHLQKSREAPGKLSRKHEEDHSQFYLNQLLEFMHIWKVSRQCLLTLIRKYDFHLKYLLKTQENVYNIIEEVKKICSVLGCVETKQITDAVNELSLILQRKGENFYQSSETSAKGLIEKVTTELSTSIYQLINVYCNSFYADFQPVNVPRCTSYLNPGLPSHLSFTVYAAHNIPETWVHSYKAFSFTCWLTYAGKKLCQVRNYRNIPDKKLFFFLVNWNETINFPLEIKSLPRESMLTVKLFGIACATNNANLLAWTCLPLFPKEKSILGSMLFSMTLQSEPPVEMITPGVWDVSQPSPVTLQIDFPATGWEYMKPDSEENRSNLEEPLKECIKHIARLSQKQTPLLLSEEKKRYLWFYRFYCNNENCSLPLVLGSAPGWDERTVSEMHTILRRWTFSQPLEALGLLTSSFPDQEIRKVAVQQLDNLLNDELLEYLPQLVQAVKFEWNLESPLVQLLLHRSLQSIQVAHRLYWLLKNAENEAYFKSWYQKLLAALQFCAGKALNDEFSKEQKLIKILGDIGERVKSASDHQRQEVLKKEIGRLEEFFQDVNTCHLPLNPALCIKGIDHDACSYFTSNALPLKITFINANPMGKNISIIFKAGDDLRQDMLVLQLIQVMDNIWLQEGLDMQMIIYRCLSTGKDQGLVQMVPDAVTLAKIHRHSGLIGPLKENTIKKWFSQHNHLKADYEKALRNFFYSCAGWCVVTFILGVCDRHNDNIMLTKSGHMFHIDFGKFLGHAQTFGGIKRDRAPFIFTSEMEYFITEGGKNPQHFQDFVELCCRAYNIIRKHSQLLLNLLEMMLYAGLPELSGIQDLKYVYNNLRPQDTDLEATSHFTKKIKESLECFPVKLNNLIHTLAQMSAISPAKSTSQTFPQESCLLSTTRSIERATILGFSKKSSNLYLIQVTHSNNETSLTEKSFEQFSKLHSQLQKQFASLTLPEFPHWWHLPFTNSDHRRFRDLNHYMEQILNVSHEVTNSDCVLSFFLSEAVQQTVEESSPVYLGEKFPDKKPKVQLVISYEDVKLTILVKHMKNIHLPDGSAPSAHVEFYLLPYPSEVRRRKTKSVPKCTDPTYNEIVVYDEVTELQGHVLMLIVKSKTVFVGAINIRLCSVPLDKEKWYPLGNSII

With `CNS(=O)(=O)c1ccc(N(C)C)c(Nc2nc(C)nc3cc(OC)c(OC)cc23)c1` [compound 15, 3-((6,7-dimethoxy-2-methylquinazolin-4-yl)amino)-4-(dimethylamino)-N-methylbenzenesulfonamide], the inhibition at 1 µM in assay [1] is 0%; in [2] it was 0%; in assay [3], 9%; in assay [4], 2%; in [5] it was 24%; in assay [6], 0%. Besides, the inhibition at 1 µM is 0% in assay [7]; 5% in assay [8]; 0% in [9]; 0% in assay [10]; 0% in [11]; 4% in assay [12]. The inhibition at 1 µM in assay [13] was 0%; in [14], 0%; in [15], 22%; in assay [16], 12%; in assay [17], 16%; in [18], 0%. For the same compound, the inhibition at 1 µM in [19] turned out to be 39%; in assay [20], 13%; in [21], 31%; in [22] it was 25%; in [23], 0%.

For orientation: inhibition means the drop in the measured response relative to a control, in per cent.
